Measured values as given in PubChem BioAssay (NCI).
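Cells were grown in 96-well plates and exposed to each compound for 48 hours at five concentrations; endpoints were interpolated linearly between bracketing concentrations, or set to the highest concentration if not reached. At the TGI there is no net growth.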 Where a SMILES comes first, the peptide text is derived from it. [ ]: non-standard residue; d: D form. The star is where a group is joined. Hyp = O=C(O)[CH]1C[CH](O)CN1; Cbz = O=C(OCc1ccccc1)*

Experiments:
Assay in all cases: NCI anticancer screen, dose series, 48 h
M14 melanoma = tested on: M14 melanoma
MCF7 breast = tested on: MCF7 breast
MOLT-4 leukemia = tested on: MOLT-4 leukemia
A549 NSCLC = tested on: A549 NSCLC
BT-549 breast = tested on: BT-549 breast
U251 CNS = tested on: U251 CNS
MALME-3M melanoma = tested on: MALME-3M melanoma
SW-620 colon = tested on: SW-620 colon
SF-539 CNS = tested on: SF-539 CNS
K-562 leukemia = tested on: K-562 leukemia
LOX IMVI melanoma = tested on: LOX IMVI melanoma
HT29 colon = tested on: HT29 colon
SNB-19 CNS = tested on: SNB-19 CNS
NCI-H23 lung = tested on: NCI-H23 lung
NCI-H460 lung = tested on: NCI-H460 lung
SK-MEL-2 melanoma = tested on: SK-MEL-2 melanoma
SK-OV-3 ovarian = tested on: SK-OV-3 ovarian
KM12 colon = tested on: KM12 colon
SK-MEL-5 melanoma = tested on: SK-MEL-5 melanoma

| SMILES | TGI (M14 melanoma) [µM] | TGI (MCF7 breast) [µM] | TGI (MOLT-4 leukemia) [µM] | TGI (A549 NSCLC) [µM] | TGI (BT-549 breast) [µM] | TGI (U251 CNS) [µM] | TGI (MALME-3M melanoma) [µM] | TGI (SW-620 colon) [µM] | TGI (SF-539 CNS) [µM] | TGI (K-562 leukemia) [µM] | TGI (LOX IMVI melanoma) [µM] | TGI (HT29 colon) [µM] | TGI (SNB-19 CNS) [µM] | TGI (NCI-H23 lung) [µM] | TGI (NCI-H460 lung) [µM] | TGI (SK-MEL-2 melanoma) [µM] | TGI (SK-OV-3 ovarian) [µM] | TGI (KM12 colon) [µM] | TGI (SK-MEL-5 melanoma) [µM] |
| --- | --- | --- | --- | --- | --- | --- | --- | --- | --- | --- | --- | --- | --- | --- | --- | --- | --- | --- | --- |
| CNc1ccc(Cl)cc1C(=O)N1CCC[C@H]1CO | > 100 | > 100 | > 100 | > 100 | > 100 | > 100 | > 100 | > 100 | > 100 | > 100 | > 100 | > 100 | > 100 | > 100 | > 100 | > 100 | > 100 | > 100 |  |
| COC(OC)[C@@H]1OC[C@H](n2ccc(=O)[nH]c2=O)[C@H]1O | > 100 | > 100 | > 100 | > 100 | > 100 | > 100 |  | > 100 | > 100 | > 100 | > 100 | > 100 | > 100 | > 100 | > 100 | > 100 | > 100 | > 100 | > 100 |
| NC(=O)CNC(=O)C1CC(O)CN1C(=O)C1CCCN1C(=O)OCc1ccccc1 (stereo not drawn) (Cbz-Pro-[Hyp]-Gly-NH2; configuration not given here) | > 100 | > 100 | > 100 | > 100 | > 100 | > 100 | > 100 | > 100 |  | > 100 | > 100 | > 100 | > 100 | > 100 | > 100 | > 100 | > 100 | > 100 | > 100 |
| COc1cccc(C=C(C#N)C#N)c1OC | > 100 | > 100 | > 100 | > 100 | > 100 | > 100 | > 100 | > 100 | > 100 | > 100 |  | > 100 | > 100 | > 100 | > 100 |  | > 100 | > 100 | > 100 |
| COc1cc(/C=C/C(=O)N[C@@H]2C(=O)N3[C@@H]2SC(C)(C)[C@@H]3C(=O)O)ccc1O | > 100 | > 100 | > 100 | > 100 | > 100 | > 100 |  | > 100 | > 100 | > 100 | > 100 | > 100 | > 100 | > 100 | > 100 | > 100 | > 100 | > 100 | > 100 |
| C=CCc1cccc(/C(O)=C/C(=O)/C=C/c2ccccc2Cl)c1O | > 100 | > 100 | 15.6 | > 100 | > 81.3 | > 63.1 |  | 90.1 | 72 | > 25.2 | 24.6 | 42.5 | > 84 | 21.8 | > 100 | 26.2 | 97.1 | 97 | 31.7 |
| Cc1[nH]c2[nH]c(=S)nc(NC(N)=S)c2c1Cc1ccccc1 | > 100 | > 100 | > 100 | > 100 | 36.3 | > 100 |  | > 100 | > 100 | > 100 | 55.4 | 52 | > 100 | > 100 | > 100 | > 100 | > 100 | 40.7 | 26.1 |
| CC(=O)O[C@H]1C(=O)[C@@]2(C)[C@H]([C@H](OC(=O)c3ccccc3)[C@]3(O)C[C@H](OC(=O)[C@H](O)[C@@H](NC(=O)C(C)(O)C(C)O)c4ccccc4)C(C)=C1C3(C)C)[C@]1(OC(C)=O)CO[C@@H]1C[C@@H]2O (some centres undefined) | > 50 |  | > 50 | > 50 | 3.45 |  | > 50 | > 50 | 0.49 | > 50 | > 50 |  | > 50 | > 50 | > 50 |  | 10.9 |  | > 50 |
| COc1ccc(-n2nnc3c(C#N)c(C)c(-c4ccccc4)n3c2=O)cc1 | > 26.7 | > 100 | > 58.1 | > 38.8 | > 100 | > 41.5 | > 100 | > 100 | > 20 |  | > 100 | > 100 | > 21.6 | > 100 | > 39.3 | > 100 | > 22.4 | > 100 | 17 |
| CCOC(=O)COc1cc(-c2ccccc2)nc2cc(F)ccc12 | > 100 | > 100 | > 100 | > 100 | > 100 | > 100 | > 100 | > 100 | > 100 | > 100 | > 100 | > 100 |  | > 100 |  | > 100 | > 100 | > 100 | > 100 |
| COc1ccc(OC)c2c1ccc1c(C)c3ccccc3c(C)c12 | > 100 | > 100 | > 100 |  | > 100 | > 100 | > 100 |  |  | > 100 | > 100 | > 100 | > 100 | > 100 | > 100 | > 100 |  |  |  |
| CC(=S)NC=C(C(N)=O)C(N)=O | > 100 | > 100 | > 100 | > 100 | > 100 | > 100 | > 100 | > 100 | > 100 | > 100 | > 100 | > 100 |  | > 100 |  | > 100 | > 100 | > 100 | > 100 |
| N#CC(C#N)[C@@H]1CCC=C(Sc2ccccc2)[C@H]1Sc1ccccc1 | 4.95 | 14.1 | > 23.7 | 12.7 | 11.9 | 23.6 | 13.6 |  | 4.6 | > 100 |  | 13.8 | 29 | 20.9 | 13.6 | 12.2 | 16.3 | 12.2 | 18.4 |
| O=C(c1ccccc1)N1CCC(Nc2cccnc2)O1 (centres undefined) | > 100 | > 100 | > 100 | > 100 | > 100 | > 100 | > 100 | > 100 | > 100 | > 100 |  | > 100 | > 100 | > 100 | > 100 | > 100 | > 100 | > 100 | > 100 |
| CCOC(=O)CCCOc1cc(-c2ccccc2F)nc2cc3c(cc12)OCO3 | > 100 | > 100 | 98 | > 100 | > 100 | > 100 | > 100 | > 100 | > 100 |  | > 100 | > 100 |  | > 100 |  | > 100 | > 100 | > 100 | > 100 |
| N#Cc1n[nH]n(-c2ccccc2)c1=O | > 100 | > 100 | > 100 | > 100 | > 100 | > 100 | > 100 | > 100 | > 100 | > 100 | > 100 | > 100 | > 100 | > 100 |  | > 100 | > 100 | > 100 | > 100 |
| CCOC1Oc2ccccc2-c2nc(N)ncc21 (centres undefined) | > 100 | > 100 | > 100 | > 100 | > 100 | > 100 |  | > 100 | > 100 |  | > 100 | > 100 | > 100 | > 100 | > 100 | > 100 | > 100 | > 100 | > 100 |
| COC(=O)C1=C(C(=O)OC)N(c2ccncc2)C(c2ccco2)=CC1c1ccccc1[N+](=O)[O-] (centres undefined) |  | 7.06 | 6.17 | 31.3 | 25.4 | 10.7 | 18.7 |  | 3.6 | > 100 | 3.35 | 3.95 | 41 | 29.8 | 14.7 | 36.1 | 33.1 | 3.38 |  |
| COc1cc([N+](=O)[O-])cc2c1NC(=O)C2(C)SC (centres undefined) | > 100 | > 100 | > 100 | > 100 | > 100 | > 100 | > 100 | > 100 |  | > 100 | > 100 | > 100 | > 100 | > 100 | > 100 | > 100 | 69.7 | > 100 | > 100 |
| C[C@]12O[C@@]3(C)O[C@@]3(C)[C@]3(C)O[C@]3(C)[C@@]1(C)O2 | > 100 | > 100 | > 100 | > 100 | > 100 | > 100 | > 100 |  |  | > 100 | > 100 | > 100 | > 100 | > 100 |  | > 100 | > 100 | > 100 | > 100 |
| CNc1cc(Cl)ccc1C(=O)N1CCC[C@H]1CO | > 100 | > 100 | > 100 | > 100 | > 100 | > 100 | > 100 | > 100 | > 100 |  | > 100 | > 100 | > 100 | > 100 |  | > 100 | > 100 | > 100 | > 100 |
| COc1ccc(-c2n[nH]c3nc4ccccc4n3c2=O)cc1 | > 100 | > 100 | > 100 | > 100 | > 100 | > 100 | > 100 | > 100 | > 100 |  | > 100 | > 100 | > 100 | > 100 | > 100 | > 100 |  | > 100 | > 100 |
| O=C1c2ccccc2C(=O)c2c1sc1nc3ccccc3n21 | 3.15 | 3.84 | 4.89 | 25.1 | 3.45 | 9.37 | 1.6 |  | 3.81 | 5.09 |  | 13.8 | 4.42 | 3.74 | 3.66 |  | 19.1 | 3.91 | 43.3 |
| O=C(O)c1ccc2[nH]c(=O)oc2c1 | > 100 | > 100 | > 100 |  | > 100 | > 100 | > 100 | > 100 | > 100 | > 100 | > 100 | > 100 | > 100 | > 100 | > 100 | > 100 | > 100 | > 100 |  |
| O=C(Cn1c2c(c3ccccc31)CCCC2)N1CCOCC1 | > 100 | > 100 | > 100 | > 100 | > 100 |  | > 100 | > 100 | > 100 | > 100 | > 100 | > 100 | > 100 | > 100 | > 100 | > 100 | > 100 |  | > 100 |
| C/C(=N\NC(N)=S)C(CN1CCCCC1)C(C1=C(O)c2ccccc2OC1)c1ccccc1 (centres undefined) | > 100 | > 100 | > 100 | > 100 | > 100 | > 100 | > 100 | > 100 | > 100 |  | > 100 | > 100 | > 100 | > 100 | > 100 | > 100 | > 100 | > 100 | > 100 |
| CN(C(=O)C12C3(C(=O)O)C4C5(C(=O)O)C3C1(C(=O)O)C5C42C(=O)O)C(C)(C)C (centres undefined) | > 100 | > 100 | > 100 | > 100 | > 100 | > 100 |  | > 100 | > 100 | > 100 | > 100 | > 100 | > 100 | > 100 | > 100 | > 100 |  | > 100 | > 100 |
